How the values were obtained:
Type in all cases: in vivo, human
[1] = test system: healthy, obese adults with normal blood pressure; experiment: Effect of betaine on blood pressure, controlled randomized double-blinded 12-week intervention study
Description: (§1) The effects of betaine supplementation on blood pressure, and in addition on body weight, body composition, resting energy expenditure, and concentrations of serum total and lipoprotein lipids and plasma homocysteine in humans, were studied. The participants were healthy, obese adults with normal blood pressure.
(§2) Forty-two subjects (14 males, 28 females) without any chronic disease and with normal liver, kidney and thyroid function participated in the study. The inclusion criteria for body mass index (BMI) was 28-40 kg/m^2 and for age 25-60 years. Serum concentration of total triglycerides had to be <3.5 mmol/l and that of total cholesterol <7.5 mmol/l. Inclusion criteria for fasting concentration of plasma glucose was <6.7 mmol/l. Subjects with lipid lowering medication were excluded as well women with perimenopause. Four women were postmenopausal in the control group and 6 were postmenopausal in the betaine group. None of the participants were on a medication for hypertension.
(§3) The study was a controlled, randomized double-blinded parallel study. […] Grapefruit juice was added to simulate the bitter taste of betaine. The subjects were on their regular eucaloric diet during this period. For the intervention period with a hypocaloric (−2100 kJ or −500 kcal) diet the subjects were randomly assigned in two groups (20 for the control group, 22 for the betaine group). The subjects were matched for BMI, gender and menstrual cycle.
(§4) The control group consumed orange juice 1 dl twice a day and the betaine group consumed betaine enriched orange juice 1 dl twice a day. The amount of betaine was 3 g per 1 dl orange juice, giving a daily betaine dose of 6 g.
The data were analyzed with the SPSS/PC+ statistics program (V8.0, SPSS; Chicago, Ill.). Before further analyses, normal distribution of the variables was checked with the Kolmogorov-Smimov test with Lilliefors significance correction. Variables with abnormal distribution (TG) were logarithmized and the logarithmized values were used in further analyses. GLM for repeated measures was used to test the changes within time. In cases the result of this analysis was significant paired t-test was used for two-tailed comparisons within the groups. Student's t-test was used for between-group comparisons. […] All data are expressed as mean±SD.
Blood pressure was measured from the right arm after five minutes of rest in sitting position using a zero mercury sphygmomanometer. Two measurements were performed and the mean of them was calculated and used for further analyses.

homocysteine = experiment: Total homocysteine by HPLC in the intervention study
Description: as §1, §2, §3, §4
Plasma total homocysteine was determined by a modification of the highpressure liquid chromatographic method described by Ubbink et al. (Ubbink, J. B., Vermaak, W. J. H., Bissbort, S. Rapid high-performance liquid chromatographic assay for total homocysteine levels in human serum. J Chromatogr (1991) 565:441446). The modified mobile phase consisted of 0.37 mol/l acetate and 0.5% methanol, pH 4.15.

[2] = test system: healthy, obese adults with normal blood pressure; experiment: Tolerability of the daily betaine dose in the intervention study; settings: 6 g daily dose, 12 weeks
Description: as §1, §2
as §3, with “The subjects were matched for BMI, gender and menstrual cycle.” left out

[3] = Betaine absorption and excretion: blood, serum and urine levels after administration
Experimental: There was, however, no clear correlation between blood and urine betaine levels. After administration of 1, 3 or 6 g betaine an amount of about 3, 5 and 7%, respectively, was recovered as betaine and dimethylglycine (DMG) in 24 h urine. After loading betaine 100 mg/kg, peak serum concentrations were found 1-2 h after loading; the concentrations varying a lot with indiviudual (148-258 μmol/l).

[4] = 4 wk (beginning of intervention period), betaine group, mean ± SD

Time of peak serum concentrations after loading ([3]; loading betaine 100 mg/kg): 1 to 2 h | Peak serum concentrations ([3]; loading betaine 100 mg/kg, varying with individual): 148 to 258 µmol/L | Betaine in blood and urine of persons given betaine (result in words) ([3]; persons given betaine in the study): Significantly increased amounts
SMILES: C[N+](C)(C)CC(=O)[O-] [Betaine, trimethylglycine]
Diastolic blood pressure [1, 4]: 85.4 ± 7.9 mmHg | Systolic blood pressure [1, 4]: 122.5 ± 9.5 mmHg | Change in diastolic blood pressure during the intervention period ([1]; 12-week intervention, betaine 6 g daily, mean ± SD, P=0.219 vs control group): −4.9 ± 6.6 mmHg | Change in systolic blood pressure during the intervention period ([1]; 12-week intervention, betaine 6 g daily, mean ± SD, P=0.740 vs control group): −1.4 ± 8.0 mmHg | Diastolic blood pressure ([1]; 16 wk (end of intervention period), betaine 6 g daily in orange juice, mean ± SD, P=0.002 vs 4 wk): 80.5 ± 7.1 mmHg | Systolic blood pressure ([1]; 16 wk (end of intervention period), betaine 6 g daily in orange juice, mean ± SD, P=0.432 vs 4 wk): 121.1 ± 9.4 mmHg | Diastolic blood pressure (result in words) ([1]; betaine group, normotensive subjects, 4 wk vs 16 wk): decreased significantly | Serum homocysteine concentration (homocysteine; 4 wk (beginning of intervention), betaine group, mean ± SD): 8.76 ± 1.63 µmol/L | Serum homocysteine concentration (homocysteine; 16 wk (end of intervention), betaine 6 g daily, P=0.025 vs 4 wk): 7.93 ± 1.52 µmol/L | Change in serum homocysteine concentration during the intervention period (homocysteine; betaine 6 g daily, P=0.030 vs control group): -0.83 ± 0.34 µmol/L | Side effects [2]: no side effects were observed | Tolerability [2]: well tolerated
